Experimental data as given in patent US10081624B2, “Heterocyclic compound” (Takeda Pharmaceutical Company Limited, priority 2014, dated 2018).

These compounds were tested against T1, HDAC6 enzyme (Homo sapiens, UniProt Q9UBN7) (assay: HDAC6 enzyme inhibitory assay (HDAC-Glo I/II Assay kit)). Conditions: 1 μM test compound; read-out: HDAC6 inhibitory rate (%) (1 μM).
T1 construct: prepared by transducing full length HDAC1 and HDAC6 genes into Sf-9 insect cells; GST; purchased SignalChem; host or cells: Sf-9 insect cells
T1 sequence (Q9UBN7 1-1215): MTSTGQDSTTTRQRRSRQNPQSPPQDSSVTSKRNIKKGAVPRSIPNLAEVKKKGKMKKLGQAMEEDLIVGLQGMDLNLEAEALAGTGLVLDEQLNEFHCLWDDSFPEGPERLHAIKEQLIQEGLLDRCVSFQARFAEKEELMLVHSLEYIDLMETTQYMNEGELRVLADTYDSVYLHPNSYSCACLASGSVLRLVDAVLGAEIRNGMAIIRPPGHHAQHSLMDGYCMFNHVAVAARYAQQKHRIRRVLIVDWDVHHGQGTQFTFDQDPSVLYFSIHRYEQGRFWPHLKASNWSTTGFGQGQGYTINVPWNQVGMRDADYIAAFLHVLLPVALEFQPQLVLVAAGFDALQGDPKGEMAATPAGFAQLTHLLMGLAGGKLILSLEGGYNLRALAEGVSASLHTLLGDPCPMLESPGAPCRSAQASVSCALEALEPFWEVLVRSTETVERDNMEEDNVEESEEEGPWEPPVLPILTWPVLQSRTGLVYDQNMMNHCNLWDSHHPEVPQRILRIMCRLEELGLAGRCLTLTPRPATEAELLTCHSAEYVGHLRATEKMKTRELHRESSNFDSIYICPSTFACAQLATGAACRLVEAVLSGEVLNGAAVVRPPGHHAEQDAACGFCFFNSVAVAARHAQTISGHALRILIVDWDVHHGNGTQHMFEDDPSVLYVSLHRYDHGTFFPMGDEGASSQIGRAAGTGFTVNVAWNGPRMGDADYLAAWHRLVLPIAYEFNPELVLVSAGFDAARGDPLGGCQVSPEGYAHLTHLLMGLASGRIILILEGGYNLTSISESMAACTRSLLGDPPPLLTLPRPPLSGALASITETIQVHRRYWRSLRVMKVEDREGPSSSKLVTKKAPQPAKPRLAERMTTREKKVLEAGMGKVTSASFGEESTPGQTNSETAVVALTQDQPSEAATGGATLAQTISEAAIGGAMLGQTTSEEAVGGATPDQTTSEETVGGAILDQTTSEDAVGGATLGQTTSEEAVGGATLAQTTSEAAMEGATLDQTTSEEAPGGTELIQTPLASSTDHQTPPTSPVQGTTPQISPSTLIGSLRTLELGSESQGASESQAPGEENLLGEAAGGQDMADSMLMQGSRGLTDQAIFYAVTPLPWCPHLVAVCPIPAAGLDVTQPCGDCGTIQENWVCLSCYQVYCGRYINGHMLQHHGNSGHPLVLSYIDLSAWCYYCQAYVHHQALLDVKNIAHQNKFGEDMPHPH
Type: biochemical
Procedure: HDAC1 enzyme and HDAC6 enzyme each prepared by transducing full length HDAC1 and HDAC6 genes into Sf-9 insect cells and purifying by GST affinity column were purchased from SignalChem. Using these enzymes, HDAC1 and/or HDAC6 enzyme inhibitory activities of the compound of the present invention were evaluated. Enzymes were used after preserved at −70° C. HDAC1 or HDAC6 enzyme inhibitory activity of the compound of the present invention was measured using HDAC-Glo™ I/II Assay kit (Promega) according to the following experimental method. The test compound diluted with assay buffer (24 mM Tris-HCl (pH 7.5), 1 mM MgCl2, 0.35 mM KCl, 135 mM NaCl, 0.6 mM Glutathione, 0.01% Tween-20) was added to a 384-well plate by each 2 μL. Then, HDAC1 or HDAC6 enzyme solution diluted with assay buffer was added thereto by each 4 μL, and the plate was incubated at room temperature for 60 min. After incubated, HDAC substrate-Developer solution prepared according to Promega protocol attached to the assay kit was added to the 384-well plate by each 2 μL, and the enzyme reaction was started. After reacting at room temperature for 20 min, luminescence level was measured using plate reader Envision (PerkinElmer). The inhibitory activity of each compound was calculated as a relative activity value when luminescence level in wells without enzyme is considered as 100% inhibition.

inhibition at 1 µM [%] | Compound
96 | O=C(NCC1COCCN1C(=O)c1ccccc1Cl)c1ccc(-c2noc(C(F)(F)F)n2)s1 (stereo not shown) [Example 214, N-((4-(2-chlorobenzoyl)morpholin-3-yl)methyl)-5-(5-(trifluoromethyl)-1,2,4-oxadiazol-3-yl)thiophene-2-carboxamide]
75 | Cn1ccc(C(=O)N2CCOC[C@@H]2CNC(=O)c2ccc(-c3noc(C(F)(F)F)n3)cc2)n1 [Example 65, N-(((3S)-4-((1-methyl-1H-pyrazol-3-yl)carbonyl)morpholin-3-yl)methyl)-4-(5-(trifluoromethyl)-1,2,4-oxadiazol-3-yl)benzamide]
91 | Cc1cc(C(=O)N2CCOCC2CNC(=O)c2ccc(-c3noc(C(F)(F)F)n3)s2)ccn1 (stereo not shown) [Example 227, N-((4-(2-methylisonicotinoyl)morpholin-3-yl)methyl)-5-(5-(trifluoromethyl)-1,2,4-oxadiazol-3-yl)thiophene-2-carboxamide]
89 | Cn1nccc1C(=O)N1CCOC[C@H]1CNC(=O)c1ccc(-c2noc(C(F)(F)F)n2)cc1 [Example 154, N-(((3R)-4-((1-methyl-1H-pyrazol-5-yl)carbonyl)morpholin-3-yl)methyl)-4-(5-(trifluoromethyl)-1,2,4-oxadiazol-3-yl)benzamide]
89 | Cc1ccc(C(=O)N2CCOCC2CNC(=O)c2ccc(-c3noc(C(F)(F)F)n3)s2)s1 (stereo not shown) [Example 242, N-((4-((5-methyl-2-thienyl)carbonyl)morpholin-3-yl)methyl)-5-(5-(trifluoromethyl)-1,2,4-oxadiazol-3-yl)thiophene-2-carboxamide]
95 | N#Cc1cc(F)cc(C(=O)N2CCOC[C@@H]2CNC(=O)c2ccc(-c3noc(C(F)(F)F)n3)cn2)c1 [Example 189, N-(((3S)-4-(3-cyano-5-fluorobenzoyl)morpholin-3-yl)methyl)-5-(5-(trifluoromethyl)-1,2,4-oxadiazol-3-yl)pyridine-2-carboxamide]
96 | Cc1ccsc1C(=O)N1CCOCC1CNC(=O)c1ccc(-c2noc(C(F)(F)F)n2)s1 (stereo not shown) [Example 244, N-((4-((3-methyl-2-thienyl)carbonyl)morpholin-3-yl)methyl)-5-(5-(trifluoromethyl)-1,2,4-oxadiazol-3-yl)thiophene-2-carboxamide]
94 | O=C(NC[C@H]1COCCN1C(=O)C1CCOCC1)c1ccc(-c2noc(C(F)(F)F)n2)cc1 [Example 81, N-(((3S)-4-(tetrahydro-2H-pyran-4-ylcarbonyl)morpholin-3-yl)methyl)-4-(5-(trifluoromethyl)-1,2,4-oxadiazol-3-yl)benzamide]
66 | O=C(NCC1c2ccccc2CN1C(=O)c1cc(Cl)cc(Cl)c1)c1ccc(-c2noc(C(F)(F)F)n2)cc1 (stereo not shown) [Example 171, N-((2-(3,5-dichlorobenzoyl)-2,3-dihydro-1H-isoindol-1-yl)methyl)-4-(5-(trifluoromethyl)-1,2,4-oxadiazol-3-yl)benzamide]
93 | O=C(NC[C@@H]1COCCN1C(=O)c1cc[nH]n1)c1ccc(-c2noc(C(F)(F)F)n2)cc1 [Example 143, N-(((3R)-4-(1H-pyrazol-3-ylcarbonyl)morpholin-3-yl)methyl)-4-(5-(trifluoromethyl)-1,2,4-oxadiazol-3-yl)benzamide]
97 | O=C(NC[C@H]1COCCN1C(=O)c1cccc(F)c1)c1ccc(-c2noc(C(F)(F)F)n2)cn1 [Example 185, N-(((3S)-4-(3-fluorobenzoyl)morpholin-3-yl)methyl)-5-(5-(trifluoromethyl)-1,2,4-oxadiazol-3-yl)pyridine-2-carboxamide]
96 | Cc1ncsc1C(=O)N1CCOC[C@@H]1CNC(=O)c1ccc(-c2noc(C(F)(F)F)n2)cn1 [Example 196, N-(((3S)-4-((4-methyl-1,3-thiazol-5-yl)carbonyl)morpholin-3-yl)methyl)-5-(5-(trifluoromethyl)-1,2,4-oxadiazol-3-yl)pyridine-2-carboxamide]
84 | O=C(NCC1c2ccccc2CN1C(=O)C1CC1)c1ccc(-c2noc(C(F)(F)F)n2)cc1 (stereo not shown) [Example 169, N-((2-(cyclopropylcarbonyl)-2,3-dihydro-1H-isoindol-1-yl)methyl)-4-(5-(trifluoromethyl)-1,2,4-oxadiazol-3-yl)benzamide]
95 | O=C(NCC1COCCN1C(=O)c1ccncc1)c1ccc(-c2noc(C(F)(F)F)n2)s1 (stereo not shown) [Example 226, N-((4-isonicotinoylmorpholin-3-yl)methyl)-5-(5-(trifluoromethyl)-1,2,4-oxadiazol-3-yl)thiophene-2-carboxamide]
98 | Cc1ncsc1C(=O)N1CCOCC1CNC(=O)c1ccc(-c2noc(C(F)(F)F)n2)s1 (stereo not shown) [Example 238, N-((4-((4-methyl-1,3-thiazol-5-yl)carbonyl)morpholin-3-yl)methyl)-5-(5-(trifluoromethyl)-1,2,4-oxadiazol-3-yl)thiophene-2-carboxamide]
56 | O=C(NC[C@H]1COCCN1C(=O)C(c1ccccc1)c1ccccc1)c1ccc(-c2noc(C(F)(F)F)n2)cc1 [Example 57, N-(((3S)-4-(diphenylacetyl)morpholin-3-yl)methyl)-4-(5-(trifluoromethyl)-1,2,4-oxadiazol-3-yl)benzamide]
89 | O=C(NC[C@H]1COCCN1C(=O)c1cc[nH]n1)c1ccc(-c2noc(C(F)(F)F)n2)cc1 [Example 71, N-(((3S)-4-(1H-pyrazol-3-ylcarbonyl)morpholin-3-yl)methyl)-4-(5-(trifluoromethyl)-1,2,4-oxadiazol-3-yl)benzamide]
88 | Cn1cc(C(=O)N2CCOC[C@@H]2CNC(=O)c2ccc(-c3noc(C(F)(F)F)n3)cc2)cn1 [Example 66, N-(((3S)-4-((1-methyl-1H-pyrazol-4-yl)carbonyl)morpholin-3-yl)methyl)-4-(5-(trifluoromethyl)-1,2,4-oxadiazol-3-yl)benzamide]
90 | O=C(NC[C@@H]1COCCN1C(=O)C1CCCO1)c1ccc(-c2noc(C(F)(F)F)n2)cc1 (stereo partly drawn) [Example 150, N-(((3R)-4-(tetrahydrofuran-2-ylcarbonyl)morpholin-3-yl)methyl)-4-(5-(trifluoromethyl)-1,2,4-oxadiazol-3-yl)benzamide]
88 | O=C(NC[C@H]1COCCN1C(=O)C1CCCO1)c1ccc(-c2noc(C(F)(F)F)n2)cc1 (stereo partly drawn) [Example 78, N-(((3S)-4-(tetrahydrofuran-2-ylcarbonyl)morpholin-3-yl)methyl)-4-(5-(trifluoromethyl)-1,2,4-oxadiazol-3-yl)benzamide]
63 | Cc1nn(C)c(C)c1C(=O)N1CCOC[C@H]1CNC(=O)c1ccc(-c2noc(C(F)(F)F)n2)cc1 [Example 139, 4-(5-(trifluoromethyl)-1,2,4-oxadiazol-3-yl)-N-(((3R)-4-((1,3,5-trimethyl-1H-pyrazol-4-yl)carbonyl)morpholin-3-yl)methyl)benzamide]
98 | O=C(NCC1COCCN1C(=O)CCc1ccccc1)c1ccc(-c2noc(C(F)(F)F)n2)s1 (stereo not shown) [Example 250, N-((4-(3-phenylpropanoyl)morpholin-3-yl)methyl)-5-(5-(trifluoromethyl)-1,2,4-oxadiazol-3-yl)thiophene-2-carboxamide]
